According to patent publication EP2876105A1, “1-(CYCLOALKYL-CARBONYL)PROLINE DERIVATIVE” (Sumitomo Dainippon Pharma Co., Ltd., priority 2012, dated 2014):
Read-outs that look alike come from different tables or passages of the source.

Key:
[1] = Ester metabolism stabilization test: human liver stabilization test; assay type: in vitro ADME; conditions: human liver S9 with NADPH, 37°C, 30 minutes
Description: A reaction solution prepared by mixing 5 µL of human liver S9 (manufactured by Xenotech, 20 mg/mL), 20 µL of 500 mmol/L Kpi (pH7.4), 40 µL of 5 mmol/L NADPH (manufactured by Oriental Yeast Co., Ltd.) aqueous solution, and 133 µL of ion exchange water was added to 2 µL of a DMSO solution containing 100 µmol/L test substance, and the thus obtained mixture was then incubated at 37°C for 30 minutes. After completion of the incubation, 600 µL of acetonitrile was added to the reaction solution, so that the metabolic reaction was terminated. The residual percentage of the test substance was measured using LC (LC-20A manufactured by Shimadzu Corporation) and -MS (API4000 manufactured by AB Sciex).

[2] = Ester metabolism stabilization test: stabilization in human plasma test; assay type: in vitro ADME; conditions: 37°C, 30 minutes
Description: 198 µL of human plasma (manufactured by Cosmo Bio) was added to 2 µL of a DMSO solution containing 100 µmol/L test substance, and the obtained mixture was then incubated at 37°C for 30 minutes. After completion of the incubation, 600 µL of acetonitrile was added to the reaction solution, so that the metabolic reaction was terminated. The residual percentage of the test substance was measured using LC (LC-20A manufactured by Shimadzu Corporation) and -MS (API4000 manufactured by AB Sciex).

[3] = target: human FXIa (Homo sapiens, UniProt P03951); test: In vitro activated factor XI (FXIa) inhibition test; assay type: biochemical
Description: To the substrate, S-2366 (pyroGlu-Pro-Arg-pNA•HCl) was added to a final concentration of 300 µmol/L. After the reaction had progressed, the absorbance at OD 405 nm was measured. […]

[4] = system: rabbit model with venous thrombus; test: Rabbit in vivo antithrombotic action evaluation test (venous thrombus model, thrombus weight); conditions: i.v.
Excerpt: A rabbit model with venous thrombus was produced by modifying the report of Wienen et al. (Wienen W. et al., J. Thromb. Haemost. 5:1237-1242 (2007)). A male rabbit (JW, 2-4 kg) was narcotized by inhalation of isoflurane (ISOFLU®, manufactured by DS Pharma Animal Health) (inductive anesthesia: 4%, continuous anesthesia: 1.5% to 2.5%). For intravenous administration of a test agent and blood collection, catheters were inserted into the left femoral vein and the left femoral artery. The left external jugular vein was exposed (2 cm) from a branch of the facial vein, the microvascular branch was then ligated, and a catheter was then inserted into the posterior facial vein. The external jugular vein (2 cm) exposed from each of an anterior facial vein branch and a facial vein branch was ligated with an artery clamp, and blood was then removed from a catheter left in the posterior facial vein. Blood in the blood vessel was washed with a normal saline, and 0.5% polidocanol (manufactured by Sigma) was injected into the blood vessel. It was then left for 5 minutes, so that the occurrence of a disorder in vascular endothelium was provoked. Thereafter, 0.5% polidocanol was removed, the inside of the blood vessel was then washed with a normal saline, and the artery clamp was then removed. The external jugular vein (2 cm) exposed from the facial vein branch, together with an injection needle 21G (manufactured by Terumo), was ligated with a silk thread, so that the inner diameter of the blood vessel was reduced to 0.8 mm. Twenty-five minutes after recirculation of the blood flow, the external jugular vein (2cm) exposed from the facial vein branch was excised, and the wet weight and dry weight of a thrombus formed in the blood vessel were measured. A test agent or a vehicle was administered to the rabbit 2 minutes before recirculation of the blood flow.

[5] = system: endogenous coagulation pathway; test: Activated partial thromboplastin time (aPTT) of blood sample from the rabbit venous thrombus test; assay type: in vivo; conditions: i.v.; for aPTT: blood collected 2 minutes after administration
Description: In order to measure the activated partial thromboplastin time (aPTT) of the blood sample, which was to be used as an indicator of an endogenous coagulation pathway, 2 minutes after the administration of the test agent or the vehicle, blood was collected, and plasma was then prepared using 3.2% sodium citrate. The prepared plasma was incubated at 37°C for 7 minutes, and an STA reagent Cephascreen (used for aPTT measurement; manufactured by Roche Diagnostics) was added in an equal amount to the resulting plasma, and the obtained mixture was further incubated for 3 minutes. Thereafter, STA calcium chloride (manufactured by Roche Diagnostics) was added in an equal amount to the resultant, and the time required until coagulation was then measured.

[6] = 0.35 µg/mL human FXIa, substrate S-2366 300 µmol/L, 37°C, 10 minutes, OD 405 nm, read-out: FXIa inhibitory activity IC50

Chain of human FXIa (P03951 388-625 limits assumed): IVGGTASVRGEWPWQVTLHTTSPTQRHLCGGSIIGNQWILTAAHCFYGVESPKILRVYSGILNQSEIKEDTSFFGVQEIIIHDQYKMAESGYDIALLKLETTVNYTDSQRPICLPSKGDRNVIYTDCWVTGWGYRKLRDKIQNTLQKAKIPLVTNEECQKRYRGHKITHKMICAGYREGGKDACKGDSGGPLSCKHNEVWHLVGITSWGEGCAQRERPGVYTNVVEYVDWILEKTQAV
Chain of human FXIa (P03951 19-387 partner limits assumed): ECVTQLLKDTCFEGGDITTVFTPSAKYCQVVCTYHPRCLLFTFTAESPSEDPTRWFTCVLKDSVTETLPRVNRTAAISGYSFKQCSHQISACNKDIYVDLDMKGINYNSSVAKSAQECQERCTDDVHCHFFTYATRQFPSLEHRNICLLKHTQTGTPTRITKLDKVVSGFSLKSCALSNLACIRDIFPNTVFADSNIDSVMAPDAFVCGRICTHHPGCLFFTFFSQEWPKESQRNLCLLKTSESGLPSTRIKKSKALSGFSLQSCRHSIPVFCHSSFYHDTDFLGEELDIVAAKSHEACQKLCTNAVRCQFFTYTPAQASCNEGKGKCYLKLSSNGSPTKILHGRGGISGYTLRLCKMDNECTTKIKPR

In the case of `CCC(=O)OC(OC(=O)c1cc2cc(NC(=O)[C@@H]3[C@@H](c4ccccc4)CCN3C(=O)[C@H]3CC[C@H]([C@H](N)CF)CC3)ccc2[nH]1)C(C)C` (stereo partly drawn) [compound 125], the “Residual percentage (%) Human liver S9” value [1] is reported as 5.6% and the “Residual percentage (%) Human plasma” value [2] is reported as 86%.

With `CC(OC(=O)OC1CCCCC1)OC(=O)c1cc2cc(NC(=O)[C@@H]3[C@@H](c4ccccc4)CCN3C(=O)[C@H]3CC[C@H]([C@H](N)CF)CC3)ccc2[nH]1` (stereo partly drawn) [compound 120] the “Residual percentage (%) Human liver S9” value [1] was 4.9% and the “Residual percentage (%) Human plasma” value [2] was 65%.

With `COC1CCC([C@@H]2CCN(C(=O)[C@H]3CC[C@H]([C@H](N)CF)CC3)[C@@H]2C(=O)Nc2ccc3oc(C(=O)OCC(C)C)cc3c2)CC1` (stereo partly drawn) [compound 201] the IC50 [3, 6] was 4100 nM, the “Residual percentage (%) Human liver S9” value [1] was 45% and the “Residual percentage (%) Human plasma” value [2] was 85%.

With `N[C@H](CF)[C@H]1CC[C@H](C(=O)N2CC[C@@H](C3CCCCC3)[C@H]2C(=O)Nc2ccc3oc(C(=O)OCC4CCOCC4)cc3c2)CC1` [compound 141] the IC50 [3] was 3450 nM, the “Residual percentage (%) Human liver S9” value [1] was 17% and the “Residual percentage (%) Human plasma” value [2] was 94%.

In the case of `N[C@H](CF)[C@H]1CC[C@H](C(=O)N2CCC(C3CCCCC3)[C@H]2C(=O)Nc2ccc3oc(C(=O)O)cc3c2)CC1` (single isomer, unassigned) [compound 53], the IC50 [3] is reported as 34 nM, the “Thrombus (% inhibition)” value ([4]; dose 0.1 mg/kg) is reported as 25% and the “Thrombus weight” value ([4]; dose 0.1 mg/kg) is reported as 51.3 mg. The “Thrombus (% inhibition)” value ([4]; dose 0.3 mg/kg) was 56%, the “Thrombus weight” value ([4]; dose 0.3 mg/kg) was 30.3 mg and the “Thrombus (% inhibition)” value ([4]; dose 1.0 mg/kg) was 79%. The “Thrombus weight” value ([4]; dose 1.0 mg/kg) was 14.7 mg, the “Thrombus (% inhibition)” value ([4]; dose 3.0 mg/kg) was 80% and the “Thrombus weight” value ([4]; dose 3.0 mg/kg) was 14.0 mg. The “aPTT (% vehicle)” value ([5]; dose 0.1 mg/kg) was 103%, the “aPTT” value ([5]; dose 0.1 mg/kg) was 17.8 s and the “aPTT (% vehicle)” value ([5]; dose 0.3 mg/kg) was 117%. For the same compound, the “aPTT” value ([5]; dose 0.3 mg/kg) was 20.3 s, the “aPTT (% vehicle)” value ([5]; dose 1.0 mg/kg) was 140% and the “aPTT” value ([5]; dose 1.0 mg/kg) was 24.2 s. For the same compound, the “aPTT (% vehicle)” value ([5]; dose 3.0 mg/kg) was 166% and the “aPTT” value ([5]; dose 3.0 mg/kg) was 28.8 s.

With `COCCCOC(=O)c1cc2cc(NC(=O)[C@@H]3[C@H](C4CCCCC4)CCN3C(=O)[C@H]3CC[C@H]([C@H](N)CF)CC3)ccc2o1` [compound 82] the “Residual percentage (%) Human liver S9” value [1] was 5.8% and the “Residual percentage (%) Human plasma” value [2] was 92%.

With `CC(C)OC(=O)OC(C)OC(=O)c1cc2cc(NC(=O)[C@@H]3[C@H](C4CCCCC4)CCN3C(=O)[C@H]3CC[C@H]([C@H](N)CF)CC3)ccc2[nH]1` (stereo partly drawn) [compound 128] the “Residual percentage (%) Human liver S9” value [1] was 47% and the “Residual percentage (%) Human plasma” value [2] was 82%.

For `Cc1oc(=O)oc1COC(=O)c1cc2cc(NC(=O)[C@@H]3[C@@H](c4ccccc4)CCN3C(=O)[C@H]3CC[C@H]([C@H](N)CF)CC3)ccc2[nH]1` [compound 171], the IC50 [3, 6] was 300 nM, the “Residual percentage (%) Human liver S9” value [1] was 18% and the “Residual percentage (%) Human plasma” value [2] was under 1%.

For “(1R)-1-([(1S)-1-(trans-4-{[(2S,3S)-3-Cyclohexyl-2-{[4-(1H-tetrazol-5-yl)phenyl]carbamoyl}pyrrolidin-1-yl]carbonyl}cyclohexyl)-2-fluoroethyl]carbamoyl}oxy)ethyl 2-methylpropanoate [Example 205]”, the “Residual percentage (%) Human liver S9” value [1] was 3.5% and the “Residual percentage (%) Human plasma” value [2] was 60%.
